Measured values published in PMC8234803, “In Vitro Metabolism of Six C-Glycosidic Flavonoids from Passiflora incarnata L” (International Journal of Molecular Sciences, 2021).
Entries after “also recorded” stand apart in the source; their conditions may differ.

Assays:
Caco-2 cell monolayer = test: Caco-2 monolayer metabolism experiment, metabolites identified via UHPLC-DAD-MS(/MS); assay type: in vitro ADME, human; conditions: for Metabolites of the aglycones (cleavage of the C–C glycosidic bond): 100 µM approach; for Possible metabolite (phase II metabolite identified by MS/MS fragmentation and comparison with reference compound after enzymatic hydrolysis): glucuronidase/sulfatase cleavage, UHPLC-DAD-MS/MS; for Extent of phase I and II metabolism (in words): independent of incubation time and concentration
Experimental: To obtain information on the in vitro metabolism of the six tested C-glycosidic flavonoids in the intestine, experiments were carried out using the Caco-2 monolayer model (Figure 2). Metabolite profiles were characterized at two different concentrations (10 and 100 µM; n = 3) and after two different incubation times (3 or 5 h; n = 3) in order to determine the influence of concentration and time on the metabolism reactions that occurred. Furthermore, to analyze the distribution of the observed metabolites, samples were collected from the cell lysate and the apical and basolateral compartments. All samples of the metabolism experiments using the Caco-2 cell monolayer were analyzed using UHPLC-DAD-MS and UHPLC-DAD-MS/MS. Metabolites were identified by libraries that were prepared for each compound (Tables S1–S6). The O and IO libraries contained 67 metabolites (Tables S1 and S2), the S and IS libraries contained 106 metabolites (Tables S3 and S4), and the V and IV libraries contained 71 possible metabolites (Tables S5 and S6).
To form a confluent and differentiated monolayer, cells at passages 16–45 were seeded into the inserts of 12-well Transwell® plates at a density of 3.0 × 10^5 cells/cm^2. Afterwards, the culture medium was replaced every day, and the metabolism experiment was performed 21 days after seeding. The apical and basolateral compartments contained 0.5 and 1.5 mL of cell culture medium, respectively.
On day 21, the cell culture medium was removed from the apical and basolateral compartments, and the Caco-2 cell monolayer was washed two times with prewarmed HBSS. The Transwell® plates containing HBSS were incubated at 37 °C for 15 min to measure the transepithelial electrical resistance (TEER) value. The integrity of the cell monolayers was evaluated by TEER values between the apical and basolateral sides with the Evohm2 system (World Precision Instruments, Sarasota, FL, USA). The cell inserts were only used for the metabolism experiments if the resistance exceeded 350 Ω/cm^2. The six test substances were dissolved in DMSO to a stock solution of 20 mM. The HBSS was adjusted to pH 6.0 and 7.4 with 1 M HCl. Afterwards, the stock solutions were diluted to 10 or 100 µM in an appropriate volume of HBSS (pH 6.0) to obtain a DMSO concentration of <1%. The test solutions were added to the apical side (0.5 mL), while the basolateral side was filled with 1.5 mL of HBSS (pH 7.4). The Transwell® plates were incubated at 37 °C for 3 or 5 h, respectively. After this period, solutions from the apical and basolateral compartments were collected in separate tubes, washed twice with 500 µL of HBSS, and then collected again. The samples were lyophilized and stored at −20 °C until they were measured using UHPLC-DAD-MS. After the experiment, Transwell® inserts were apically (0.5 mL) and basolaterally (1.5 mL) filled with HBSS and warmed to 37 °C for 20 min. Then, the TEER values were measured to guarantee the integrity of the monolayer during the experiment. The experiment was performed in triplicate for each substance, concentration, and incubation time.
After the metabolism experiment, cell monolayers were washed twice with PBS and incubated with 200 µL of trypsin-EDTA for 10 min at 37 °C in an atmosphere of 5% CO2 and constant humidity in the incubator. The cells were removed from the well by pipetting up and down, and were collected in a tube. The well was washed twice with PBS (1 mL), and the wash solution was also collected in the corresponding tube. The mixture was centrifuged (1000× g rpm, 5 min), and the supernatant was discarded.

[1] = Stability testing in test buffer (HBSS pH 6.0) under assay conditions, HPLC-DAD; assay type: physicochemical; conditions: 10 µM in HBSS pH 6.0, 37 °C, 5% CO2; after 3 h of incubation
Experimental: To guarantee the stability of all test substances during the metabolism assay on Caco-2 cells, they were incubated in the test buffer under assay conditions. Test samples were collected each hour for 5 h and were measured via HPLC-DAD.
To ensure stability during the Caco-2 metabolism experiments, all test substances were dissolved in DMSO to a concentration of 20 mM and diluted to 10 µM in an appropriate volume of HBSS (pH 6.0), resulting in a DMSO concentration of less than 1%. The test solution (1 mL) was aliquoted into a 12-well Transwell® plate and incubated for 5 h in an atmosphere of 5% CO2 and 90% relative humidity at 37 °C. Test samples (100 µL) were collected after t = 0, 1, 2, 3, 4, and 5 h and measured via HPLC-DAD. The peak area of the test substance at time t = 0 h was defined as 100%, and all other peak areas were related to calculate the proportional stability. The stability was calculated as % = area/area0 × 100. Stability testing was performed on three independent days with freshly prepared solutions (n = 3).
The system consisted of the following: Elite LaChrom with an L2200 autosampler, L2130 pump, L2350 column oven, L2444 DAD, and EZChrom Elite 3.1.7 software (Hitachi, Tokyo, Japan); column: Kinetex® Biphenyl, 100 Å, 250-4.6 mm (5 µm, same material precolumn; Phenomenex, Torrance, CA, USA); injection volume 30 µL; oven temp.: 25 °C; autosampler temp.: 10 °C; detection wavelength: 340 nm; flow: 1.2 mL/min; A = H2O + 0.1% TFA, B = acetonitrile + 0.1% TFA; gradient: 0–2 min 10% B, 2–10 min 10% B → 100% B, 10–11 min 100% B → 10% B, 11–15 min 10% B.

Caco-2 cells = test: MTT assay under metabolic conditions (cell viability); assay type: cell-based, human; conditions: 10, 25, 50, 75, 100 µM in HBSS (pH 6.0), 5 h incubation
Experimental: All six substances were tested in five different dilutions in HBSS (pH 6.0). The determined viability values of O, IO, S, IS, V, and IV are listed in the Supplementary Materials (Figure S2).
Caco-2 cells in the logarithmic growth phase were seeded in 96-well plates at a density of 3 × 10^4 cells/well and incubated at 37 °C in an atmosphere of 5% CO2 and constant moisture in an incubator. After 24 h, the cell culture medium was removed, and 100 µL of HBSS solution (negative control), 0.5% DMSO in HBSS solution (solvent control), or flavonoid samples in HBSS solution (6 flavonoids at concentrations of 10, 25, 50, 75, and 100 µM) was applied in quintuplicate and incubated for 5 h. Afterwards, the HBSS solutions were removed and replaced with an MTT solution in DMEM (0.4 mg/mL) and incubated for another 3 h at 37 °C. Then, the MTT solution was discarded, and the cells were fixed with a 10% SDS solution in PBS and stored at room temperature in the dark. After 24 h, the absorbance was measured on a Tecan microplate reader (Tecan Trading AG, Switzerland) at 560 nm. The viability rate was calculated as % = A/A0 × 100, with A as the average absorbance value of the treatment and solvent control groups and A0 as the average absorbance value of the negative control group. The assay was performed three times in pentaplicate.
The human colon adenocarcinoma cell line Caco-2 was obtained from the ATCC (American Type Culture Collection, Manassas, VA, USA). The cell line was determined to be free of mycoplasma contamination by PCR and culture from GATC Biotech AG (Konstanz, Germany). The cells were cultured in DMEM supplemented with 10% (v/v) FBS, 1% (v/v) NEAA, and 1% (v/v) antibiotics (penicillin/streptomycin) in an atmosphere of 5% CO2 and 90% relative humidity at 37 °C. The culture medium was replaced every 3 days, and the cells were split 1:5 using trypsin-EDTA once 90% confluence was obtained.

[2] = metabolite at RT 5.134 min, m/z 477.0674
[3] = metabolite at RT 5.476 min, m/z 461.0724
[4] = initial concentration 10 µM, 3 h, apical compartment
[5] = initial concentration 10 µM, 3 h, basolateral compartment
[6] = initial concentration 10 µM, 5 h, apical compartment
[7] = initial concentration 100 µM, 3 h, apical compartment
[8] = initial concentration 100 µM, 3 h, basolateral compartment
[9] = initial concentration 100 µM, 5 h, apical compartment
[10] = initial concentration 100 µM, 5 h, cell lysate

Compound | Extent of metabolism (in words) (Caco-2 cell monolayer; 10 µM, 3 and 5 h) | Metabolites of the aglycones (cleavage of the C–C glycosidic bond) (Caco-2 cell monolayer) | Extent of metabolism (in words) (Caco-2 cell monolayer; 100 µM, 3 and 5 h) | Possible metabolite (phase II metabolite identified by MS/MS fragmentation and comparison with reference compound after enzymatic hydrolysis) (Caco-2 cell monolayer; [2]) | Possible metabolite (phase II metabolite identified by MS/MS fragmentation and comparison with reference compound after enzymatic hydrolysis) (Caco-2 cell monolayer; [3]) | Extent of phase I and II metabolism (in words) (Caco-2 cell monolayer) | Possible metabolite detected (Caco-2 cell monolayer; [4]) | Possible metabolite detected (Caco-2 cell monolayer; [5]) | Possible metabolite detected (Caco-2 cell monolayer; [6]) | Possible metabolite detected (Caco-2 cell monolayer; [7]) | Possible metabolite detected (Caco-2 cell monolayer; [8]) | Possible metabolite detected (Caco-2 cell monolayer; [9]) | Possible metabolite detected (Caco-2 cell monolayer; [10]) | Stability (content relative to t = 0 h) [1] | Effect on the viability of Caco-2 cells (in words) (Caco-2 cells) | also measured
O=c1cc(-c2ccc(O)c(O)c2)oc2cc(O)c([C@@H]3O[C@H](CO)[C@@H](O)[C@H](O)[C@H]3O)c(O)c12 [IO, isoorientin] | broader ranges of phase I and II metabolites | metabolites of the corresponding aglycones apigenin and luteolin were also detected | extensive metabolism | Quercetin-glucuronide | Luteolin-glucuronide | highly metabolized in phase I and II reactions | Isoorientin-sulfate; also recorded: Hydroxy-luteolin-glucuronide; also recorded: Hydroxy-methoxy-isoorientin | Isoorientin-sulfate; also recorded: Hydroxy-methoxy-isoorientin | Isoorientin-sulfate; also recorded: Hydroxy-methoxy-isoorientin | Methoxy-isoorientin-sulfate; also recorded: Hydroxy-luteolin-glucuronide; also recorded: Methoxy-luteolin; also recorded: Hydroxy-methoxy-isoorientin | Isoorientin-sulfate; also recorded: Hydroxy-methoxy-isoorientin | Hydroxy-isoorientin; also recorded: Methoxy-isoorientin-sulfate; also recorded: Hydroxy-luteolin-glucuronide | Isoorientin-sulfate; also recorded: Methoxy-isoorientin | approximately 100% | no significant effects at any concentration | Possible metabolite (phase II metabolite identified by MS/MS fragmentation and comparison with reference compound after enzymatic hydrolysis) (Caco-2 cell monolayer; metabolite at RT 2.514 5.107 min, m/z 527.0501): IO-sulfate; Possible metabolite detected (Caco-2 cell monolayer; initial concentration 100 µM, 3 h, cell lysate): Isoorientin-sulfate; also recorded: Methoxy-isoorientin; Possible metabolite detected (Caco-2 cell monolayer; initial concentration 100 µM, 5 h, basolateral compartment): Isoorientin-sulfate
O=c1cc(-c2ccc(O)cc2)oc2c([C@@H]3O[C@H](CO)[C@@H](O)[C@H](O)[C@H]3O)c(O)c([C@@H]3OC[C@H](O)[C@H](O)[C@H]3O)c(O)c12 [IS, isoschaftoside] | very limited metabolism |  | a few hydroxylated and methoxylated derivatives |  |  | poorly metabolized in phase I and II reactions |  |  |  | Methoxy-isoschaftoside |  |  |  | approximately 100% | no significant effects at any concentration | Phase II conjugates containing glucuronic acid or sulfates (Caco-2 cell monolayer; 10 µM, 3 and 5 h): No phase II conjugates containing glucuronic acid or sulfates were detectable; Phase II metabolites with glucuronic acid or sulfates (Caco-2 cell monolayer; 100 µM, 3 and 5 h): lacked the presence of phase II metabolites with glucuronic acid or sulfates
O=c1cc(-c2ccc(O)c(O)c2)oc2c([C@@H]3O[C@H](CO)[C@@H](O)[C@H](O)[C@H]3O)c(O)cc(O)c12 [O, orientin] | broader ranges of phase I and II metabolites | metabolites of the corresponding aglycones apigenin and luteolin were also detected | extensive metabolism | Quercetin-glucuronide | Luteolin-glucuronide | highly metabolized in phase I and II reactions | Orientin-sulfate; also recorded: Hydroxy-methoxy-orientin | Orientin-sulfate; also recorded: Hydroxy-methoxy-orientin | Orientin-sulfate; also recorded: Methoxy-orientin | Orientin-sulfate; also recorded: Hydroxy-luteolin-glucuronide; also recorded: Methoxy-luteolin; also recorded: Hydroxy-methoxy-orientin | Orientin-sulfate | Orientin-sulfate; also recorded: Hydroxy-luteolin-glucuronide; also recorded: Hydroxy-methoxy-orientin | Methoxy-orientin | approximately 100% | no significant effects at any concentration | Possible metabolite (phase II metabolite identified by MS/MS fragmentation and comparison with reference compound after enzymatic hydrolysis) (Caco-2 cell monolayer; metabolite at RT 3.146 min, m/z 527.0499): O-sulfate
